Measurements as given in PubChem BioAssay (NCI).
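Interpolation was linear, between the two tested concentrations surrounding the appropriate level; five concentrations were tested over 48 hours in 96-well plates. GI50: concentration for 50% inhibition of growth. TGI marks complete inhibition of growth.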

Key:
Experiment in all cases: NCI tumour cell line growth inhibition, 48 h
[1] = test system: OVCAR-8 ovarian
[2] = test system: MDA-MB-231 breast
[3] = test system: ACHN renal
[4] = test system: HL-60(TB) leukemia
[5] = test system: SF-295 CNS
[6] = test system: HCT-15 colon
[7] = test system: SNB-19 CNS
[8] = test system: NCI-H460 lung
[9] = test system: SK-OV-3 ovarian
[10] = test system: K-562 leukemia

Compound	GI50 [1] [µM]	TGI [1] [µM]	GI50 [2] [µM]	TGI [2] [µM]	GI50 [3] [µM]	TGI [3] [µM]	GI50 [4] [µM]	TGI [4] [µM]	GI50 [5] [µM]	TGI [5] [µM]	GI50 [6] [µM]	TGI [6] [µM]	GI50 [7] [µM]	TGI [7] [µM]	GI50 [8] [µM]	TGI [8] [µM]	GI50 [9] [µM]	TGI [9] [µM]	GI50 [10] [µM]	TGI [10] [µM]
COC1=CC(c2ccc[nH]2)=N/C1=C\c1[nH]c(C)c(C(=O)CCC(=O)Oc2ccc3c(c2)CCC2C3CC[C@]3(C)[C@@H](O)CC[C@@H]23)c1C (stereo not given in full)	3.94	> 100	0.46	2.55	1.94	6.7	4.7	> 100	4	20.4	1.29	4.18	4.13	72.6	3.07	> 100	5.56	> 100		
C[C@H](c1ccc(F)cc1CCCC(=O)O)N(c1cc(F)ccc1F)S(=O)(=O)c1ccc(Cl)cc1	38	> 100	31.4	> 100	30.8	> 100	30.7	> 95.1	23.1	> 75.9	22.3	74.7	27.9	> 100	20.6	52.8	42.3	> 100	36.6	> 100
OCc1ccc(-c2csc(-c3ccc(CO)o3)c2)o1	31.5	> 100	67.2	> 100	43.9	> 100	22.9	> 100	13.9	> 100	32.8	> 100	> 76.4	> 100	9.75	> 100	26.1	> 100	11.6	> 100
CC#C[C@]1(O)CCC2[C@@H]3CCC4=CC(=O)CCC4=C3[C@@H](c3ccc(N(C)C)cc3)C[C@@]21C (stereo not given in full)		> 100		35.4		> 100		38		30.1		> 100		98.3		28.3		72.4		58.8
NC1N=Nc2ccccc21 (stereo not given)		> 100				> 100		> 100		> 100		> 100		> 100		> 100		> 100		> 100
O=C(Cn1c(C(=O)c2ccc(Cl)cc2)nc(-c2ccc(Cl)cc2)c1-c1ccc(Cl)cc1)c1ccccc1	> 100	> 100	> 100	> 100	> 100	> 100	> 100	> 100	> 100	> 100	> 100	> 100	> 100	> 100	> 100	> 100	> 100	> 100	> 100	> 100
O=C(C=Nc1ccccc1C(=O)[O-])c1cccs1.O=C(C=Nc1ccccc1C(=O)[O-])c1cccs1.[Ni+2]		> 100				> 100		> 100		> 100		> 100		> 100		> 100		> 100		> 100
Cc1ccccc1C1=C(c2cn(C)c3ccccc23)C(=O)NC1=O	> 22.5	> 25	21.5	> 25	7.33	> 25	10.8	> 25	14.7	> 25	10.7	> 25	> 25	> 25	14.3	> 25	> 25	> 25	13.6	> 25
N/C=N/S(=O)(=O)c1ccc(NC(=O)COC(=O)c2cccc3c(=O)c4ccccc4[nH]c23)cc1		> 100				> 100		> 100		> 100		> 100		> 100		> 100		> 100		> 100
COc1cc2c3c(n(CCCN(CCCN(CCCn4c5c(c6ccccc6c4=O)C(=O)c4ccccc4-5)C(=O)OC(C)(C)C)C(=O)OC(C)(C)C)c(=O)c2cc1OC)-c1cc2c(cc1C3=O)OCO2	> 100	> 100	28.5	> 100			> 100	> 100	> 100	> 100			> 100	> 100	21.5	> 100	> 100	> 100	> 100	> 100
O=C(c1ccccc1)C(Cl)C(Cl)c1ccccc1 (stereo not given)	3.06	10.1	3.16	8.97	2.21	5.23	3.04	8.58	12.9	26	2.12	9.03	6.85	21.2	6.66	22.5	16.8	30.5	2.6	10.3
COc1ccc(/C=C/C(=O)c2c(O)ccc3c(C)c(C(=O)O)oc23)cc1	61.3	> 100	44.7	> 100	> 100	> 100	35.5	> 100	35.1	> 100	28.2	> 100	64.9	> 100	34	> 100	> 100	> 100	36.2	> 100
CCCCCCCCCCCCCC[n+]1ccccc1			0.771	2.52	1.27	6.18	0.262	0.838	0.9	2.62	1.9	13.2			1.22	2.73	1.45	4.26	0.357	6.25
O=Cc1cccc2ccc3ccccc3c12		> 100		77.3		83.8				50.2		> 100		65.5		57.8		46.5		
